# Laboratory results reported in ChEMBL document CHEMBL1201862, “PubChem BioAssay data set” (2004).
# Activity calls are given as the source filed them. Rule as the data show it, for most assays here: actives have a measured EC50 and inactives only a lower limit.
# What was measured:
# Protein RecA = target: T1, Protein RecA (Mycobacterium tuberculosis, UniProt P9WHJ3); experiment: Fluorescence Cell-Free Homogeneous Dose Retest to Identify Inhibitors of RecA-Intein Splicing Activity. [Related pubchem assays (depositor defined):AID2097, AID2223, AID489010, AID492950]; type: functional
# T1 sequence (P9WHJ3 whole entry): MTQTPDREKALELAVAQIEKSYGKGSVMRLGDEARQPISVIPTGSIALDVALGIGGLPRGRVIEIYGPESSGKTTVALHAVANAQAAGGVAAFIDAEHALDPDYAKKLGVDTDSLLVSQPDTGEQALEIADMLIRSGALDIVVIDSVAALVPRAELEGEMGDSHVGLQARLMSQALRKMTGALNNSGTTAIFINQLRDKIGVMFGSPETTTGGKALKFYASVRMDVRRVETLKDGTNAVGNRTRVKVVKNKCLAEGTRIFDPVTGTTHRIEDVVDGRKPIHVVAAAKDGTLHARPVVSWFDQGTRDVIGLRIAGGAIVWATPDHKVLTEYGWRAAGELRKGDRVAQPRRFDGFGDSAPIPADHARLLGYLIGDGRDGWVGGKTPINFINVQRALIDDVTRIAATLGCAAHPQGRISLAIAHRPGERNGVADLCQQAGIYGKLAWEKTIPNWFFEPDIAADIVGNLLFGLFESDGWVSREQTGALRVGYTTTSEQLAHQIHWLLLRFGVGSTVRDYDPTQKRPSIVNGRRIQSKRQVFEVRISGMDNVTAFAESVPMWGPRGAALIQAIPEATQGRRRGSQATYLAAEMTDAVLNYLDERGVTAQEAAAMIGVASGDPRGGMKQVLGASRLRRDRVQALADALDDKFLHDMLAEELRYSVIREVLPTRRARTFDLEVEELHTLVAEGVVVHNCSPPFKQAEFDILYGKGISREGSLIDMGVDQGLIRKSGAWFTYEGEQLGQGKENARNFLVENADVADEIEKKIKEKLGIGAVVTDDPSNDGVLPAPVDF
# [1] = target: T2, Replicative DNA helicase DnaB (Mycobacterium tuberculosis, UniProt P9WMR3); experiment: DnaB intein splicing inhibitors, dose response, biochemical, cell-free fluorescence (AID 449749); type: functional
# T2 sequence (P9WMR3 whole entry): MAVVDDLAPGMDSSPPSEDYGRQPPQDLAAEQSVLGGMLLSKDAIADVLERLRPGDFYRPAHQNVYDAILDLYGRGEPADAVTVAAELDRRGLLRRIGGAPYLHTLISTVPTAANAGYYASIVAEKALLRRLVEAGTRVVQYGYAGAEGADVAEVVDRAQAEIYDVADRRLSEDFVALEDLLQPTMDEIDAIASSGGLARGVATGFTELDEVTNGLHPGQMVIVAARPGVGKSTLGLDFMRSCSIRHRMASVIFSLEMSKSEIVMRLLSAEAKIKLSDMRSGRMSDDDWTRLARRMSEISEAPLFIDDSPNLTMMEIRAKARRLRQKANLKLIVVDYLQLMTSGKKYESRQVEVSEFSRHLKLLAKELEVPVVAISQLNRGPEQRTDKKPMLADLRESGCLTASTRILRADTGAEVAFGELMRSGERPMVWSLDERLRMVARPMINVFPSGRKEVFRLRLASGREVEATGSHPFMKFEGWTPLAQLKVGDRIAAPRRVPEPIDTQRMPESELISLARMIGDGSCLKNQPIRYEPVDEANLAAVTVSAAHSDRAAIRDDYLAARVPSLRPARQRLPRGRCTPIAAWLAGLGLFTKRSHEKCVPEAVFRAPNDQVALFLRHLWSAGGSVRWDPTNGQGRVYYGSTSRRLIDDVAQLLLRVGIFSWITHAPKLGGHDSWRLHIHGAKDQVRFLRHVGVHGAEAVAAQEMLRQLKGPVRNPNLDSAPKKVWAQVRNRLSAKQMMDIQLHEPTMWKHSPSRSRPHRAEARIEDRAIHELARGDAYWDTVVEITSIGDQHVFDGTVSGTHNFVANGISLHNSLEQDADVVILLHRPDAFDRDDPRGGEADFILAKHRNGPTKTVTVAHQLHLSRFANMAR
# [2] = target: T3, Heat shock factor protein 1 (Mus musculus, UniProt P38532); experiment: inhibition of MG132-induced HSE-luciferase signal, confirmation, cell-based, NIH3T3, luminescence, dose retest (AID 2382); type: functional;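 also: NIH3T3 fibroblasts with HSF1-driven luciferase reporter stressed by proteasome inhibitor MG132; luminescence from HSF1-driven luciferase expression after 8 hours of MG132 stress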
# T3 sequence (P38532 whole entry): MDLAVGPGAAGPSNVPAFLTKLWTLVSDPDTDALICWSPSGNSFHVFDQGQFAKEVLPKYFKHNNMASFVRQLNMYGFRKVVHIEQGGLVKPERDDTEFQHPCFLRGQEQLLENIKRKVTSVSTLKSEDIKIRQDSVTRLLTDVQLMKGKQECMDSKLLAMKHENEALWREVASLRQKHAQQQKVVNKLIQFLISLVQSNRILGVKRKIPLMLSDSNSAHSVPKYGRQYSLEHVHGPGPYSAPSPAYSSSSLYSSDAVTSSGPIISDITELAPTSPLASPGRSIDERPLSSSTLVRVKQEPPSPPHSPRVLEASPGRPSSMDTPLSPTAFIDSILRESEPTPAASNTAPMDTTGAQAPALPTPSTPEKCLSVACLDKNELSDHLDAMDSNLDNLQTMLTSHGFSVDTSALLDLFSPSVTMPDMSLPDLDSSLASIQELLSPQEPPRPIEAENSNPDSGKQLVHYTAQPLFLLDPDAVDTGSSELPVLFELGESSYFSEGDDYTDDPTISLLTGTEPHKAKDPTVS
# H9c2 = experiment: cells; type: functional, cell-based; conditions: Rattus norvegicus, H9c2, Myocardium;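 also: confirmatory concentration-response retest of ultra-high-throughput screening hits for modulation of myocardial damage; cell death induced by hydrogen peroxide oxidative stress; compound pretreatment for 60 min then peroxide exposure for 2 h; potency is for protecting the cells against peroxide damage rather than for killing them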
# Streptococcus = experiment: Group A Streptococcus viability loss, dose response, counter-screen for streptokinase expression inhibitor project, luminescence, BacTiterGlo (AID 1915); type: functional, organism-based;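 also: potency for reduction of bacterial viability or growth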
# [3] = test system: Streptococcus sp. 'group A'; experiment: growth inhibition of control SK(-) GAS strain, dose response, counter-screen for streptokinase expression inhibitor project, luminescence, kanamycin, BacTiterGlo, confirmation (AID 1900); type: functional, organism-based
# Streptokinase A = target: T4, Streptokinase A (Streptococcus pyogenes serotype M1, UniProt P10520); experiment: S. pyogenes streptokinase expression inhibitors, potency, dose response, plasminogen activation absorbance, OD405 (AID 1914); type: functional, Streptococcus pyogenes M1 GAS;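 also: secreted streptokinase activity via plasminogen activation per viability signal from cell pellet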
# T4 sequence (P10520 whole entry): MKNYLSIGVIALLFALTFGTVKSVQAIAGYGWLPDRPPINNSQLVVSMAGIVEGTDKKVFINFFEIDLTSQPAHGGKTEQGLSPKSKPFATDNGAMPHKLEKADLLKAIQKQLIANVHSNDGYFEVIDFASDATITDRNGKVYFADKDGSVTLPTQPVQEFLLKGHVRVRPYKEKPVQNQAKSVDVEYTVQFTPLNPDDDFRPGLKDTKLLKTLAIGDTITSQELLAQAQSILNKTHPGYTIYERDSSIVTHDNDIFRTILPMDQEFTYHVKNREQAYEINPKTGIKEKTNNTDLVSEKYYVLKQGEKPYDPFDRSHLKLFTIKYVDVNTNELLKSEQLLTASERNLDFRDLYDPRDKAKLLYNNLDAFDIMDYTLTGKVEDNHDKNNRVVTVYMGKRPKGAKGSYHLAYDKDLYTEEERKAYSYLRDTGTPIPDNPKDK
# [4] = cytotoxicity toward NIH3T3 fibroblasts, dose response, counter-screen, cell-based, ATP luminescence, mouse fibroblasts (AID 2010); type: functional;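 also: cells exposed to compound for about 90 hours before reading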
# [5] = inhibitors of intracellular T. cruzi replication, confirmation, NIH3T3 host cells, beta-gal luminescence (AID 2044); type: functional, cell-based;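 also: intracellular parasites grown in NIH/3T3 mouse fibroblasts as host cells; luminescent beta-galactosidase reporter signal from transgenic T. cruzi replicating inside host cells; inhibitors lower the luminescence signal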
smiles,measurement,setting,value
CCOC(=O)Cc1n[nH]c2c1C(c1cccc(OC)c1OC)C(C#N)=C(N)O2 (centres undefined),EC50,Protein RecA,> 380 µM (inactive)
same,AC50,[1],34.7 µM (inconclusive)
CCOc1cc(C(=S)N2CCOCC2)ccc1OS(=O)(=O)c1ccc(OC)cc1,EC50,[2],> 195 µM (not active)
O=C(O)CSc1c2c(nc3cc(C(=O)Nc4cccc(C(F)(F)F)c4)ccc13)CCCC2,EC50,Protein RecA,13 µM (active)
same,AC50,[1],22.6 µM (active)
COc1cccc(-c2cnc3c(NC=O)cc(-c4cc(C)c(O)c(C)c4)cn23)c1,IC50,H9c2,> 79 µM (inactive)
COc1ccc(/C=C/C(=O)N2CCN(c3ccccn3)CC2)cc1OC,EC50,[2],> 195 µM (not active)
COc1ccccc1CNC(=O)N1CCN(c2ccccc2C)CC1,EC50,[2],> 195 µM (not active)
COc1cccc(CNC(=O)c2ccccc2SCC(=O)N2CCCC2)c1,EC50,[2],> 195 µM (not active)
COc1ccc(N2C(=O)CC(NNc3ncc(Cl)cc3Cl)C2=O)cc1 (centres undefined),EC50,[2],> 195 µM (not active)
CCOc1cc(/C=C/c2ccc3cccc([N+](=O)[O-])c3n2)ccc1OCC(=O)N(C)C,IC50,H9c2,10.7 µM (active)
COc1cc2nc(S)n3nc(COc4ccccc4C)nc3c2cc1OC,EC50,Streptococcus,10.5 µM (active)
same,EC50,[3],4.21 µM (active)
same,EC50,Streptokinase A,> 150 µM (not active)
CCCC(C)NS(=O)(=O)c1ccccc1 (centres undefined),EC50,[2],> 195 µM (not active)
CC(C)c1nc2ccccc2c2nnc(SCC(=O)NCc3ccco3)n12,EC50,[2],> 195 µM (not active)
CCOC(=O)c1[nH]c2cc(OC)c(OC)cc2c1NC(=O)C(C)N1CCN(Cc2ccccc2)CC1 (centres undefined),IC50,H9c2,10.2 µM (active)
O=C(NNc1ccccc1Cl)C(O)(c1cccc(C(F)(F)F)c1)c1cccc(C(F)(F)F)c1,EC50,Streptococcus,17.4 µM (active)
same,EC50,[3],2.65 µM (active)
same,EC50,Streptokinase A,3.16 µM (active)
O=C(NCC1CCN(Cc2ccccc2Cl)CC1)Nc1cccc(Cl)c1,EC50,Streptococcus,> 150 µM (not active)
same,EC50,[3],> 150 µM (not active)
same,EC50,Streptokinase A,49.3 µM (active)
CCN(CC(=O)Nc1c(F)cccc1F)C(=O)Cn1[nH]c(=O)c2ccccc2c1=O,IC50,H9c2,> 79 µM (inactive)
COc1ccc(C2NC(S)=NC3=C2CCc2ccccc23)cc1OC (centres undefined),EC50,Protein RecA,11.2 µM (active)
same,AC50,[1],20 µM (active)
Cc1cc2c(=O)n(Cc3ccco3)c(SCC(=O)N3CCCc4ccccc43)nc2s1,EC50,Streptococcus,> 150 µM (not active)
same,EC50,[3],20.4 µM (active)
same,EC50,Streptokinase A,31.8 µM (active)
COc1ccc([N+](=O)[O-])cc1NC(=O)C(C)OC(=O)Cn1[nH]c(=O)c2ccccc2c1=O (centres undefined),IC50,H9c2,> 79 µM (inactive)
COC(=O)c1ccccc1S(=O)(=O)N1CCC(NC(=O)c2ccccc2)CC1,EC50,Protein RecA,15.1 µM (active)
same,AC50,[1],3.36 µM (active)
CSc1ncccc1C(=O)N1CCCC(N2CCN(c3ccccc3F)CC2)C1 (centres undefined),EC50,[2],> 195 µM (not active)
Oc1ncnc2sc3c(c12)CCC3,IC50,H9c2,23 µM (active)
O=C(O)C1CSC(c2ccc3c(c2)OCO3)N1 (centres undefined),EC50,[2],> 195 µM (not active)
CC(C)c1ccc(OCCCN2CCCC2)cc1,EC50,[2],> 195 µM (not active)
Cc1cccc(Sc2c(C=O)c3ccccc3n2C)c1,EC50,Protein RecA,29.6 µM (active)
same,AC50,[1],5.7 µM (active)
CCOC(=O)/C(=N\Nc1ccc(OC)cc1)c1csc(Nc2ccccc2)n1,EC50,Streptococcus,10.8 µM (active)
same,EC50,[3],3.87 µM (active)
same,EC50,Streptokinase A,> 150 µM (not active)
same,EC50,[4],9.87 µM (active)
same,EC50,[5],1.33 µM (active)
CCCc1n[nH]c2c1C(c1ccc(OCCN3CCOCC3)c(OC)c1)C(C#N)=C(N)O2 (centres undefined),EC50,Protein RecA,9.37 µM (active)
same,AC50,[1],41.4 µM (active)
O=C1CC(CSc2ccc(Cl)cc2)=NN1,EC50,Protein RecA,1.61 µM (active)
same,AC50,[1],3.23 µM (active)
CCS(=O)(=O)N1CCC2(CC1)OCCN2S(=O)(=O)c1ccc(OC)cc1,EC50,[2],> 195 µM (not active)
COc1cc(OC)cc(C(=O)NC(=S)N2CCN(c3ccc(C(F)(F)F)cc3[N+](=O)[O-])CC2)c1,EC50,Streptococcus,> 150 µM (not active)
same,EC50,[3],1.61 µM (active)
same,EC50,Streptokinase A,> 150 µM (not active)
CCC1CCCCN1c1cc(C)nc2cc(-c3cccc(C)c3)nn12 (centres undefined),EC50,Streptococcus,13.7 µM (active)
same,EC50,[3],6.17 µM (active)
same,EC50,Streptokinase A,15.3 µM (active)
CCOC(=O)c1c(NC(=O)COC(=O)c2ccc(C)s2)sc2c1CC(C)(C)NC2(C)C,EC50,Streptococcus,26.8 µM (active)
same,EC50,[3],2.43 µM (active)
same,EC50,Streptokinase A,> 150 µM (not active)
C=CCC(Nc1ccccc1)c1ccc(OC)c(OC)c1 (centres undefined),EC50,[2],> 195 µM (not active)
Cc1cccc2sc(NC(=O)[C@H](C)N3C(=O)C4CC=CCC4C3=O)nc12 (some centres undefined),EC50,[2],> 195 µM (not active)
